According to patent US9498455B2, “Cinacalcet and neuroblastic tumours” (HOSPITAL SAINT JOAN DE DEU, priority 2012, dated 2016):

What was measured:
[1] = test system: SK-N-LP cells with overexpression of CASR; assay: CASR activation by calcium after serum deprivation, SK-N-LP cells with overexpression of CASR; assay type: cell-based
Protocol: (§1) Wild type SK-N-LP cells stably transfected with pCMV-GFP or pCMV-CASR-GFP (1×10^6) in RPMI 10% FBS were seeded in P100 plates. The medium was substituted the next day with a serum-free medium (calcium-free DMEM supplemented with 0.2% bovine albumin, 4 mM L-glutamine and 0.5 mM CaCl2). This was maintained for 16 hours before substituting it with the same medium supplemented or not supplemented with up to 3 mM CaCl2. […] In the latter cell lines, indications of cell death were detected, but the cells continued to proliferate until reaching confluence, whereas cells with overexpression of CASR completely disappeared in 5 days.
In order to determine if the cell death process occurred by means of apoptosis, total proteins of wild type SK-N-LP cells (WT) and cells with overexpression of CASR (CASR) were extracted 24 and 48 hours after exposure to this model. The proteins were subjected to SDS-PAGE gel electrophoresis, transferred to a nitrocellulose membrane and incubated with specific antibodies to detect activated caspase 3 and c-PARP (Cell Signaling). Suitable secondary antibodies labeled with peroxidase were used, and it was developed with the Amersham ECL system.

[2] = test system: wild type SK-N-LP cells; assay: CASR activation by calcium after serum deprivation, wild type or pCMV-GFP SK-N-LP cells; assay type: cell-based; conditions: 3 mM CaCl2 after 16 hours serum deprivation; wild type or pCMV-GFP transfected
Protocol: as §1

[3] = test system: LAN-1; assay: Cell viability (MTS) after 72 hours, LAN-1 neuroblastoma cell line; assay type: cell-based; conditions: LAN1, LAN-1, 72 hours, no unit in table, tested concentrations given in μM, read-out: IC50 (drug concentration causing the death of 50% of the cells with respect to the control)
Protocol: (§2) 5×10^3 cells of each cell line (LAN-1, SK-N-BE(2)c, LA1-55n, LA1-5s, SK-N-LP, SK-N-JD, SK-N-AS) were seeded in 96-well plates (6 replicates per condition). The initial medium (RPMI 10% FBS) was removed the next day and substituted with the same medium containing several concentrations (100 μM, 65 μM, 30 μM, 25 μM, 20 μM, 15 μM, 10 μM, 5 μM, 3 μM, 1 μM, 0.3 μM) of cinacalcet (Selleck Biochemicals) or NPS R-568 (Tocris) or equivalent amounts of DMSO (Sigma-Aldrich). Cell viability was evaluated after 72 hours by means of quantifying the percentage of viable cells by means of the Promega CellTiter 96(r) Aqueous One Solution Cell Proliferation Assay (MTS) system. It was thus observed that both drugs induced a decrease in cell viability in the 7 cell lines examined (FIG. 2), and that in 5 of said cell lines the IC50 (drug concentration causing the death of 50% of the cells with respect to the control) of cinacalcet was less than that of NPS R-568 in a statistically significant manner (Table 1). In the case of SK-N-AS and LA1-55n cell lines, the difference in the effect promoted by both drugs was not statistically significant (Table 1).

[4] = test system: Xenografts of SK-N-LP cell line; assay: In vivo model of neuroblastoma, SK-N-LP xenografts, morphological examination; parameters: species or system athymic nu/nu mice; conditions: SK-N-LP xenograft, oral 100 mg/kg 6 days a week from day 12, sacrificed after 40 days
Protocol: (§3) Xenografts of LAN-1 and SK-N-LP cell lines were generated for which aliquots containing 10×10^6 cells from said cell lines were inoculated subcutaneously in 4-6 week old female athymic nu/nu mice (Charles Rivers). Starting from day 12, when the forming tumor could already be measured using Vernier calipers, oral treatment was started 6 days a week with cinacalcet 100 mg/kg (FIGS. 3C-3F) and with the carrier as a negative control (FIGS. 3A and 3B). The tumor volume was measured every 2-3 days. The mice were sacrificed after 40 days. Each tumor was weighed before being sectioned into two halves: one half was frozen in liquid nitrogen for expression analysis and the other half was fixed and embedded in paraffin for morphological examination and immunohistochemical analyses.

[5] = test system: SK-N-LP; assay: Cell viability (MTS) after 72 hours, SK-N-LP neuroblastoma cell line; assay type: cell-based; conditions: no unit in table, tested concentrations given in μM, read-out: IC50 (drug concentration causing the death of 50% of the cells with respect to the control)
Protocol: as §2

[6] = test system: SK-N-BE(2)C; assay: Cell viability (MTS) after 72 hours, SK-N-BE(2)c neuroblastoma cell line; assay type: cell-based; conditions: no unit in table, tested concentrations given in μM, read-out: IC50 (drug concentration causing the death of 50% of the cells with respect to the control)
Protocol: as §2

[7] = test system: SK-N-JD; assay: Cell viability (MTS) after 72 hours, SK-N-JD neuroblastoma cell line; assay type: cell-based; conditions: no unit in table, tested concentrations given in μM, read-out: IC50 (drug concentration causing the death of 50% of the cells with respect to the control)
Protocol: as §2

[8] = test system: SK-N-AS; assay: Cell viability (MTS) after 72 hours, SK-N-AS neuroblastoma cell line; assay type: cell-based; conditions: Homo sapiens, no unit in table, tested concentrations given in μM, read-out: IC50 (drug concentration causing the death of 50% of the cells with respect to the control)
Protocol: as §2

[9] = test system: LA1-55n; assay: Cell viability (MTS) after 72 hours, LA1-55n neuroblastoma cell line; assay type: cell-based; conditions: no unit in table, tested concentrations given in μM, read-out: IC50 (drug concentration causing the death of 50% of the cells with respect to the control)
Protocol: as §2

[10] = test system: Xenografts of LAN-1 cell line; assay: In vivo model of neuroblastoma, LAN-1 xenografts, morphological examination; parameters: species or system athymic nu/nu mice; conditions: LAN-1 xenograft, oral 100 mg/kg 6 days a week from day 12, sacrificed after 40 days
Protocol: as §3

[11] = test system: LA1-5s; assay: Cell viability (MTS) after 72 hours, LA1-5s neuroblastoma cell line; assay type: cell-based; conditions: no unit in table, tested concentrations given in μM, read-out: IC50 (drug concentration causing the death of 50% of the cells with respect to the control)
Protocol: as §2

SMILES	Cell death (morphology) ([1]; 3 mM CaCl2 after 16 hours serum deprivation)	Caspase 3 activation and PARP cleavage (Western blot) ([1]; 24 and 48 hours after exposure to 3 mM CaCl2 model)	Cell death (morphology) [2]	IC50 [3]	Morphological analysis of the xenografts: cell death [4]	Morphological analysis of the xenografts: differentiation [4]	IC50 [5]	IC50 [6]	IC50 [7]	IC50 [8]	IC50 [9]	Morphological analysis of the xenografts: cell death [10]	Morphological analysis of the xenografts: differentiation [10]	IC50 [11]
[Ca+2].[Cl-].[Cl-] [CaCl2]	suffered cell death	accompanied by caspase 3 activation and PARP cleavage	hardly appreciable											
C[C@@H](NCCCc1cccc(C(F)(F)F)c1)c1cccc2ccccc12 [Cinacalcet, cinacalcet]				17.2 µM	large areas with necrosis and/or apoptosis	morphological signs of differentiation in viable cells	10.3 µM	10.7 µM	10.9 µM	10.3 µM	10.5 µM	large areas with necrosis and/or apoptosis	morphological signs of differentiation in viable cells	16.7 µM
COc1cccc([C@@H](C)NCCCc2ccccc2Cl)c1 [NPS R-568]				24.8 µM			22.4 µM	16.6 µM	25.8 µM	15.1 µM	11.4 µM			34.5 µM
